Laboratory results as given in patent US10815230B2, “Casein kinase 1 delta inhibitor” (ELECTROPHORETICS LIMITED, priority 2015, dated 2020).

Experiments:
Test in all cases: KINOMEscan binding assay
Details in all cases: read-out: % Ctrl @ 10000 nM
BRSK1 = BRSK1 (Homo sapiens, UniProt Q8TDC3)
NEK4 = NEK4 (Homo sapiens, UniProt P51957)
LCK = LCK (Homo sapiens, UniProt P06239)
SGK = SGK (Homo sapiens, UniProt O00141)
MEK4 = MEK4 (Homo sapiens, UniProt P45985)
CSNK2A2 = CSNK2A2 (Homo sapiens, UniProt P19784)
CLK1 = CLK1 (Homo sapiens, UniProt P49759)
PYK2 = PYK2 (Homo sapiens, UniProt Q14289)
CSF1R = CSF1R (Homo sapiens, UniProt P07333)
PIK4CB = PIK4CB (Homo sapiens, UniProt Q9UBF8)
FLT1 = FLT1 (Homo sapiens, UniProt P17948)
ULK2 = target: T1, ULK2 (Homo sapiens, UniProt Q8IYT8)
T1 construct: purchased DiscoveRx (KINOMEscan, LeadHunter Discovery services)

BRSK2 = BRSK2 (Homo sapiens, UniProt Q8IWQ3)
ARK5 = ARK5 (Homo sapiens, UniProt O60285)
NEK1 = NEK1 (Homo sapiens, UniProt Q96PY6)
ABL1 non-phosphorylated = ABL1 non-phosphorylated (Homo sapiens, UniProt P00519)
EPHB3 = EPHB3 (Homo sapiens, UniProt P54753)
STK16 = STK16 (Homo sapiens, UniProt O75716)
ALK (C1156Y) = ALK (C1156Y) (Homo sapiens, UniProt Q9UM73, C1156Y)
YANK2 = target: T2, YANK2 (Homo sapiens, UniProt Q9NY57)
T2 construct: purchased DiscoveRx (KINOMEscan, LeadHunter Discovery services)
T2 sequence (Q9NY57 whole entry): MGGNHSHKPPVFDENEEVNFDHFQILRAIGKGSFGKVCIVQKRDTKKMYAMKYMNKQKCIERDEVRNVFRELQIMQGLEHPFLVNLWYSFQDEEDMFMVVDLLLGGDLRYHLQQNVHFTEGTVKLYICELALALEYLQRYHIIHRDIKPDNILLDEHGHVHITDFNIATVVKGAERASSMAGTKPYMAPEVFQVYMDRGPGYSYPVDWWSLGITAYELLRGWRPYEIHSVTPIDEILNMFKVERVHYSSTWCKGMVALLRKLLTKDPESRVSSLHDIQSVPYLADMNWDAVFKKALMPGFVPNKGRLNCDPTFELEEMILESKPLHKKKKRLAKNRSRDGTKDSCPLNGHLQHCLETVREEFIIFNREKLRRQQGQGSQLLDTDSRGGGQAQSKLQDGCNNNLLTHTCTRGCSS

MLCK = MLCK (Homo sapiens, UniProt Q32MK0)
TLK1 = TLK1 (Homo sapiens, UniProt Q9UKI8)
LIMK1 = LIMK1 (Homo sapiens, UniProt P53667)
LIMK1, sequence (P53667 whole entry): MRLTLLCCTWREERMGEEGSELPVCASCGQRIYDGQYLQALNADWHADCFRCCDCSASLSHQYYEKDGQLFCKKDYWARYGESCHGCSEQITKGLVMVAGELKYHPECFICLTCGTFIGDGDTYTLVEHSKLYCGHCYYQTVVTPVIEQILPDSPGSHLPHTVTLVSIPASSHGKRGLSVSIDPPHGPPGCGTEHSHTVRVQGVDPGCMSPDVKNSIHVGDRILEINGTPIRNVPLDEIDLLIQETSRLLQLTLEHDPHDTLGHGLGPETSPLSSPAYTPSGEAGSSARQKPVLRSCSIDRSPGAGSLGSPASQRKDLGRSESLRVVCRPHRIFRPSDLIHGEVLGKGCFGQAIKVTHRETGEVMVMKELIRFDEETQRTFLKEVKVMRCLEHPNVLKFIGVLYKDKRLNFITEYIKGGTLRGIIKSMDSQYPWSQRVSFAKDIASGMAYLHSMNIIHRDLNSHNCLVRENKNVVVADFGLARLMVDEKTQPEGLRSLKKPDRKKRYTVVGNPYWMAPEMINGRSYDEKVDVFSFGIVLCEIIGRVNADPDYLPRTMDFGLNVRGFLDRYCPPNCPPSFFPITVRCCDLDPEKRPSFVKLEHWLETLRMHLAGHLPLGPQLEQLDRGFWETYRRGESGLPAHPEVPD

MELK = MELK (Homo sapiens, UniProt Q14680)
MELK, sequence (Q14680 whole entry): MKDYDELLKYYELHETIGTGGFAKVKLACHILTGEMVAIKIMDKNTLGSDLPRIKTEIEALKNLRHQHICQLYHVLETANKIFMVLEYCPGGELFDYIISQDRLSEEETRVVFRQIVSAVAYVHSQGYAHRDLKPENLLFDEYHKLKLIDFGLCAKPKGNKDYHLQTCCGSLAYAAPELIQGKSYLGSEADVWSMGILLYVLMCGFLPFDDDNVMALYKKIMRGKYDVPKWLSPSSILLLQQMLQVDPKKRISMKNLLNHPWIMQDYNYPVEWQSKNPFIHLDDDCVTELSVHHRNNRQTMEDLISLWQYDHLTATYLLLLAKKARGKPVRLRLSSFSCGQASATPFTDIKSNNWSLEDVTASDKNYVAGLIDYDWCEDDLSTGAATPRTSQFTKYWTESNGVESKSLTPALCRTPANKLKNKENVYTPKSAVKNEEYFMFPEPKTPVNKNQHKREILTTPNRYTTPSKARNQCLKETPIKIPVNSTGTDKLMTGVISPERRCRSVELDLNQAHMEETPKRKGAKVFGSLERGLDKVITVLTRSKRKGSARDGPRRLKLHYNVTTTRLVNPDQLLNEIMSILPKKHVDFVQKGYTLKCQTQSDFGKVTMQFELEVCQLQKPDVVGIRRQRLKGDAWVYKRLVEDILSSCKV

LOK = LOK (Homo sapiens, UniProt O94804)
[1] = target: RSK4 Kin.Dom.1-N-terminal (Homo sapiens, UniProt Q9UK32)
PIK3C2B = PIK3C2B (Homo sapiens, UniProt O00750)
SRC = SRC (Homo sapiens, UniProt P12931)
RIPK4 = RIPK4 (Homo sapiens, UniProt P57078)
RIPK4, sequence (P57078 whole entry): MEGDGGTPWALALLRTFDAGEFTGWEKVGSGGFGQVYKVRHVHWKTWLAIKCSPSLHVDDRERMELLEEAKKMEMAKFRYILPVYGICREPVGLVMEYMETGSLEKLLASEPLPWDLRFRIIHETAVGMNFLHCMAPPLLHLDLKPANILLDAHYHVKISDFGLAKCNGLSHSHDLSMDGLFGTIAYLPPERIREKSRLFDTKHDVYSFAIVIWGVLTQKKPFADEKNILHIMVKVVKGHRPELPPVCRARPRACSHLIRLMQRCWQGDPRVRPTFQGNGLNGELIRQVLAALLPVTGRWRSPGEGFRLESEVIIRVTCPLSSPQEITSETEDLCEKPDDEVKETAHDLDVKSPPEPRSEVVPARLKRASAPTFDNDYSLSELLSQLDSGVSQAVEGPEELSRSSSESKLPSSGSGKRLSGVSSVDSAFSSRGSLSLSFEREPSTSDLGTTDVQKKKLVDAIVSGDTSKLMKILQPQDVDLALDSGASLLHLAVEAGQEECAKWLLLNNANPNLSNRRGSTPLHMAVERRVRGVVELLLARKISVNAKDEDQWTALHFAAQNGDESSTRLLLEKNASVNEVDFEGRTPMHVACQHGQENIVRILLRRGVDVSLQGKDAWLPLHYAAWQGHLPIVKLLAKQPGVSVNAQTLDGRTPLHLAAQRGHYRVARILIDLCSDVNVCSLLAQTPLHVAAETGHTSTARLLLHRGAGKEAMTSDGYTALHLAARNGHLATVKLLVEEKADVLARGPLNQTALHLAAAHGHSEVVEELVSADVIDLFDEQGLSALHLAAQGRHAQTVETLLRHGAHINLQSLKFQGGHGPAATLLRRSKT

MEK2 = MEK2 (Homo sapiens, UniProt P36507)
PFTAIRE2 = PFTAIRE2 (Homo sapiens, UniProt Q96Q40)
PFTAIRE2, sequence (Q96Q40 whole entry): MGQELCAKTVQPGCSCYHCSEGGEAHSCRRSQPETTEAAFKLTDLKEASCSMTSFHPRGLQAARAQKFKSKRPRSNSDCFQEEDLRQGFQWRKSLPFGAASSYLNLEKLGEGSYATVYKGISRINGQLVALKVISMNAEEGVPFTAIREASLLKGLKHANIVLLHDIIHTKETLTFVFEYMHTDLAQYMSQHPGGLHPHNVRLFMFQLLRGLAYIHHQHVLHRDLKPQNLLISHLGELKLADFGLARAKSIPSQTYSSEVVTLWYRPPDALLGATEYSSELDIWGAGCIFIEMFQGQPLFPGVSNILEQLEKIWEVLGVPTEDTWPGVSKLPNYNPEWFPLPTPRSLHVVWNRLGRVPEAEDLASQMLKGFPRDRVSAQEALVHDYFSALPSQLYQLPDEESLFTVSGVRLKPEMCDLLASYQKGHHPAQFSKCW

EPHB2 = EPHB2 (Homo sapiens, UniProt P29323)
GSK3A = GSK3A (Homo sapiens, UniProt P49840)
MYLK4 = MYLK4 (Homo sapiens, UniProt Q86YV6)
MKNK2 = MKNK2 (Homo sapiens, UniProt Q9HBH9)
PIK3CA (H1047L) = PIK3CA (H1047L) (Homo sapiens, UniProt P42336, H1047L)
SGK3 = SGK3 (Homo sapiens, UniProt Q96BR1)
ACVRL1 = ACVRL1 (Homo sapiens, UniProt P37023)
ACVRL1, sequence (P37023 22-503): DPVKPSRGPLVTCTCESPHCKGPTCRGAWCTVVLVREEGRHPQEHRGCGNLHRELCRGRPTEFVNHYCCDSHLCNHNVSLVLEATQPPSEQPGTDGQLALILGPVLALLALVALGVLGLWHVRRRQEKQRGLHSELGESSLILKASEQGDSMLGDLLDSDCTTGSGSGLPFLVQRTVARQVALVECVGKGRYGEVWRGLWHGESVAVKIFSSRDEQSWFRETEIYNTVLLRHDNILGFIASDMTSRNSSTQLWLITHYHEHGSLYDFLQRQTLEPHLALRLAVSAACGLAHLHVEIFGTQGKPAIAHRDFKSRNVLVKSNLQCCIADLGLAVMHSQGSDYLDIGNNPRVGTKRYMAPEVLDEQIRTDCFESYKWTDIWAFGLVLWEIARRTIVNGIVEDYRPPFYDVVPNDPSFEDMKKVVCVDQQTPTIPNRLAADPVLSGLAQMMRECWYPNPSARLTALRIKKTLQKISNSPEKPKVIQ

[2] = target: RSK4 Kin.Dom.2-C-terminal (Homo sapiens, UniProt Q9UK32)
PAK1 = PAK1 (Homo sapiens, UniProt Q13153)
PAK1, sequence (Q13153 whole entry): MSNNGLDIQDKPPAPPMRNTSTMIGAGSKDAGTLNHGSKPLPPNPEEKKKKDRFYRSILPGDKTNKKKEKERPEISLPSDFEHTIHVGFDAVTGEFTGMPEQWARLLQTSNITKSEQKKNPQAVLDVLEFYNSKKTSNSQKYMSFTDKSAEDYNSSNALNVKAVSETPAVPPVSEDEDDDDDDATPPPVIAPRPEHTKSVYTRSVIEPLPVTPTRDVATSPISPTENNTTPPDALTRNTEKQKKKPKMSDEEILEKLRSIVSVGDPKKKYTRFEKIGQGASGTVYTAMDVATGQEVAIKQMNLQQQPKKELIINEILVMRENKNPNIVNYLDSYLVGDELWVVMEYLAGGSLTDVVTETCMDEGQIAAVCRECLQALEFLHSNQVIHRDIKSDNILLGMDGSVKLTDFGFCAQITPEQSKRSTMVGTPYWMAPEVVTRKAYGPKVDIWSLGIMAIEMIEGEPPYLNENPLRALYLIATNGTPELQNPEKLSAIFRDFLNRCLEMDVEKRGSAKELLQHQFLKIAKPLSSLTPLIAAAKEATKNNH

SRPK2 = SRPK2 (Homo sapiens, UniProt P78362)
TNK2 = TNK2 (Homo sapiens, UniProt Q07912)
STK35 = STK35 (Homo sapiens, UniProt Q8TDR2)

BRSK1, sequence (Q8TDC3 whole entry): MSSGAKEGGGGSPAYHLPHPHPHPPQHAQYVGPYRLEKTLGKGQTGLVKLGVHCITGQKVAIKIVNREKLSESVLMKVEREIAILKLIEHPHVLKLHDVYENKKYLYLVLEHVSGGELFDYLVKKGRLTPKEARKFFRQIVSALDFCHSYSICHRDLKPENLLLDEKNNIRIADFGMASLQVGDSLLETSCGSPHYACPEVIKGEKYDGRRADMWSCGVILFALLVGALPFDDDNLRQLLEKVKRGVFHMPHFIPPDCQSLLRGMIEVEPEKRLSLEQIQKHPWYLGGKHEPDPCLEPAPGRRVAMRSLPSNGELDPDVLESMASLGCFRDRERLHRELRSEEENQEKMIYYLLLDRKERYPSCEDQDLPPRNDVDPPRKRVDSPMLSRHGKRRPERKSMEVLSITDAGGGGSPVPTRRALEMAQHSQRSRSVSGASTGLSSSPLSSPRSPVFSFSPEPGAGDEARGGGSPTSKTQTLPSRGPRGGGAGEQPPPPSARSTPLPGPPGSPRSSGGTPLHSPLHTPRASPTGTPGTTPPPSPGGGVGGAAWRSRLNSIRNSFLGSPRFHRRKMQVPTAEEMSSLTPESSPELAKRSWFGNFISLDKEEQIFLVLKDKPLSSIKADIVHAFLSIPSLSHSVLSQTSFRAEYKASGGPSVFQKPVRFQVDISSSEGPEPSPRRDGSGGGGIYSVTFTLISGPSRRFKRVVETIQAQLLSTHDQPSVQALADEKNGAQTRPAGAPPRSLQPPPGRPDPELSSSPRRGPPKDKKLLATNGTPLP

Nc1ncc(-c2nc3ccccc3o2)c(-c2ccncc2)n1 [Comparative Compound 324, 5-(1,3-benzoxazol-2-yl)-4-(pyridine-4-yl)pyrimidin-2-amine]
remaining binding at 10 µM (BRSK1): 98% | remaining binding at 10 µM (NEK4): 89% | remaining binding at 10 µM (LCK): 88% | remaining binding at 10 µM (SGK): 100% | remaining binding at 10 µM (MEK4): 70% | remaining binding at 10 µM (CSNK2A2): 79% | remaining binding at 10 µM (CLK1): 80% | remaining binding at 10 µM (PYK2): 100% | remaining binding at 10 µM (CSF1R): 74% | remaining binding at 10 µM (PIK4CB): 96% | remaining binding at 10 µM (FLT1): 91% | remaining binding at 10 µM (ULK2): 100% | remaining binding at 10 µM (BRSK2): 100% | remaining binding at 10 µM (ARK5): 100% | remaining binding at 10 µM (NEK1): 100% | remaining binding at 10 µM (ABL1 non-phosphorylated): 81% | remaining binding at 10 µM (EPHB3): 95% | remaining binding at 10 µM (STK16): 89% | remaining binding at 10 µM (ALK (C1156Y)): 100% | remaining binding at 10 µM (YANK2): 70% | remaining binding at 10 µM (MLCK): 94% | remaining binding at 10 µM (TLK1): 96% | remaining binding at 10 µM (LIMK1): 100% | remaining binding at 10 µM (MELK): 80% | remaining binding at 10 µM (LOK): 72% | remaining binding at 10 µM [1]: 85% | remaining binding at 10 µM (PIK3C2B): 83% | remaining binding at 10 µM (SRC): 84% | remaining binding at 10 µM (RIPK4): 65% | remaining binding at 10 µM (MEK2): 82% | remaining binding at 10 µM (PFTAIRE2): 100% | remaining binding at 10 µM (EPHB2): 99% | remaining binding at 10 µM (GSK3A): 86% | remaining binding at 10 µM (MYLK4): 98% | remaining binding at 10 µM (MKNK2): 70% | remaining binding at 10 µM (PIK3CA (H1047L)): 100% | remaining binding at 10 µM (SGK3): 94% | remaining binding at 10 µM (ACVRL1): 100% | remaining binding at 10 µM [2]: 35% | remaining binding at 10 µM (PAK1): 75% | remaining binding at 10 µM (SRPK2): 100% | remaining binding at 10 µM (TNK2): 100% | remaining binding at 10 µM (STK35): 100%

CNc1c(C(N)=O)c2ccccn2c1C(=O)c1ccc(F)cc1 [Compound A, 2-methyl-amino-3-[(4-fluorophenyl)carbonyl]indolizine-1-carboxamide]
remaining binding at 10 µM (BRSK1): 100% | remaining binding at 10 µM (NEK4): 96% | remaining binding at 10 µM (LCK): 23% | remaining binding at 10 µM (SGK): 100% | remaining binding at 10 µM (MEK4): 43% | remaining binding at 10 µM (CSNK2A2): 93% | remaining binding at 10 µM (CLK1): 67% | remaining binding at 10 µM (PYK2): 100% | remaining binding at 10 µM (CSF1R): 87% | remaining binding at 10 µM (PIK4CB): 90% | remaining binding at 10 µM (FLT1): 91% | remaining binding at 10 µM (ULK2): 95% | remaining binding at 10 µM (BRSK2): 94% | remaining binding at 10 µM (ARK5): 85% | remaining binding at 10 µM (NEK1): 95% | remaining binding at 10 µM (ABL1 non-phosphorylated): 42% | remaining binding at 10 µM (EPHB3): 42% | remaining binding at 10 µM (STK16): 81% | remaining binding at 10 µM (ALK (C1156Y)): 98% | remaining binding at 10 µM (YANK2): 78% | remaining binding at 10 µM (MLCK): 53% | remaining binding at 10 µM (TLK1): 87% | remaining binding at 10 µM (LIMK1): 100% | remaining binding at 10 µM (MELK): 71% | remaining binding at 10 µM (LOK): 61% | remaining binding at 10 µM [1]: 64% | remaining binding at 10 µM (PIK3C2B): 74% | remaining binding at 10 µM (SRC): 40% | remaining binding at 10 µM (RIPK4): 78% | remaining binding at 10 µM (MEK2): 24% | remaining binding at 10 µM (PFTAIRE2): 100% | remaining binding at 10 µM (EPHB2): 82% | remaining binding at 10 µM (GSK3A): 56% | remaining binding at 10 µM (MYLK4): 43% | remaining binding at 10 µM (MKNK2): 58% | remaining binding at 10 µM (PIK3CA (H1047L)): 100% | remaining binding at 10 µM (SGK3): 98% | remaining binding at 10 µM (ACVRL1): 100% | remaining binding at 10 µM [2]: 6.6% | remaining binding at 10 µM (PAK1): 71% | remaining binding at 10 µM (SRPK2): 100% | remaining binding at 10 µM (TNK2): 81% | remaining binding at 10 µM (STK35): 100%
